Measured values taken from US8283358B2, “N-sulfonamido polycyclic pyrazolyl compounds” (Elan Pharmaceuticals, Inc., priority 2008, dated 2012).
Read-outs that look alike come from different tables or passages of the source.

Molecular target: T1, gamma-secretase (partially purified extract of IMR-32 cell membranes; substrate MBP-C125 Swe fusion protein, cleavage at the Aβ40 site) (Homo sapiens, UniProt P49768)
T1 construct: a partially purified extract of IMR-32 cell membranes as the gamma-secretase enzyme preparation; endogenous in cells; host or cells: IMR-32 cell membranes, partially purified extract
Experiment: Gamma-secretase APP enzyme assay (Example A)
Assay type: biochemical
Details: assay described in Example A
From the text: The gamma-secretase APP enzyme assay was designed to measure the specific proteolytic cleavage of an APP substrate (MBP-C125 Swe fusion protein) at the Aβ40 site. […] This assay involved two steps beginning with the enzymatic reaction generating a cleavage product that was captured with an immobilized antibody specific for the neo-epitope Aβ40 site. The captured cleavage product was then detected in a sandwich ELISA assay with a biotinylated reporter antibody that is specific to Aβ(17-28). Streptavidin-linked alkaline phosphatase was then added that would generate a fluorescent signal proportional to the amount of cleavage product.
This warmed solution of BigCHAPS (N,N-Bis(3-D-gluconamidopropyl)cholamide) detergent was used to dissolve Brain Extract Type-V (lipid containing a minimum of 40% phosphatidylethanolamine) from Sigma (St. Louis, Mo.) to a concentration of 8 mg/ml. This solution containing BigCHAPS and lipid at 8 mg/ml is then diluted to 0.53 mg/ml lipid with a pre-warmed solution of Hepes and sodium chloride.
Gamma-secretase was then added to a 96-well micro-titre plate and then incubated with various concentrations of inhibitor for 30 minutes at 37° C. MBPC125 substrate was then added to initiate the reaction that would run for two hours at 37° C. The reaction was quenched with the addition of SDS to a final concentration of 0.1% and then 100 μl of the reaction mixture was transferred to a capture ELISA plate and incubated overnight at 4° C. Detection of the cleavage product was performed using a standard sandwich ELISA assay and quantified using a six point standard curve.

[1] = class symbols, read-out: γAPP IC50

| Structure (SMILES) | IC50 [1] | also measured |
| --- | --- | --- |
| O=S(=O)(c1ccc(C(F)(F)F)cc1)N1C2Cc3ccccc3C1c1cn[nH]c1C2 (racemic) [compound 164] | < 100 nM | – |
| O=S(=O)(c1ccc(C(F)(F)F)cc1)N1C2Cc3c(-c4ccc(F)cc4)cccc3C1Cc1[nH]ncc12 (racemic) [compound 165] | < 100 nM | – |
| O=S(=O)(c1ccc(C(F)(F)F)nc1)N1C2Cc3[nH]ncc3C1c1cc(F)ccc12 (racemic) [compound 176] | < 100 nM | – |
| O=S(=O)(c1ccc(C(F)(F)F)cc1)N1C2Cc3[nH]ncc3C1c1cccc(-c3cccc(C(F)(F)F)c3)c1C2 (racemic) [compound 178] | < 100 nM | – |
| O=S(=O)(c1ccc(C(F)(F)F)cc1)N1C2Cc3cccc(F)c3C1Cc1n[nH]cc12 (racemic) [compound 181] | < 100 nM | – |
| O=S(=O)(c1ccc(C(F)(F)F)cc1)N1C2Cc3cccc(F)c3C1c1cn[nH]c1C2 (racemic) [compound 182] | < 100 nM | – |
| COC(=O)c1ccc2c(c1)C1c3cn[nH]c3CC2N1S(=O)(=O)c1ccc(C(F)(F)F)nc1 (racemic) [compound 194] | > 1000 nM | – |
| Cn1ncc2c1C1Cc3[nH]ncc3C2N1S(=O)(=O)c1ccc(C(F)(F)F)nc1 (racemic) [compound 204] | – | IC50 (γAPP IC50 (nM), class symbols): < 100 nM |
| O=S(=O)(c1ccc(Cl)cc1)N1C2Cc3[nH]ncc3C1c1c(F)cccc12 (racemic) [compound 209] | < 100 nM | – |
| O=S(=O)(c1ccc(F)cc1)N1C2Cc3[nH]ncc3C1c1c(F)cccc12 (racemic) [compound 210] | < 100 nM | – |
| O=S(=O)(c1ccc(C(F)(F)F)cn1)N1C2Cc3[nH]ncc3C1c1c(F)cccc12 (racemic) [compound 211] | < 100 nM | – |
| O=S(=O)(c1ccc(C(F)(F)F)nc1)N1C2Cc3[nH]ncc3C1c1cc(Cl)ccc12 (racemic) [compound 219] | < 100 nM | – |
| COC(=O)c1cccc2c1C1Cc3[nH]ncc3C2N1S(=O)(=O)c1ccc(C(F)(F)F)nc1 (racemic) [compound 220] | < 100 nM | – |
| O=S(=O)(c1ccc(C(F)(F)F)nc1)N1C2Cc3[nH]ncc3C1c1cc(O)ccc12 (racemic) [compound 225] | < 100 nM | – |
| COC(=O)c1cccc2c1C1Cc3[nH]ncc3C2N1S(=O)(=O)C1=CC=C(C(F)(F)F)NC1 (racemic) [compound 253] | < 100 nM | – |
| O=S(=O)(c1ccc(C(F)(F)F)nc1)N1C2Cc3[nH]ncc3C1c1cccc(CF)c12 (racemic) [compound 257] | < 100 nM | – |
| O=S(=O)(c1ccc(C(F)(F)F)nc1)N1C2Cc3[nH]ncc3C1c1ncc(F)cc12 (racemic) [compound 258] | – | IC50 (γAPP IC50 (nM), class symbols): < 100 nM |
| O=C1c2[nH]ncc2C2c3cccc(Cl)c3C1N2S(=O)(=O)c1ccc(C(F)(F)F)nc1 (racemic) [compound 264] | < 100 nM | – |
| O=S(=O)(c1ccc(C(F)(F)F)nc1)N1C2Cc3[nH]ncc3C1c1cccc(-c3ccc(F)cc3)c12 (racemic) [compound 266] | < 100 nM | – |
| O=S(=O)(c1ccc(C(F)(F)F)nc1)N1C2Cc3[nH]ncc3C1c1cccc(C3CC3)c12 (racemic) [compound 270] | < 100 nM | – |
| O=S(=O)(c1ccc(C(F)(F)F)nc1)N1C2Cc3[nH]ncc3C1c1c(-c3ccc(F)cc3)cccc12 (racemic) [compound 273] | – | IC50 (numeric bounds given instead of class symbols, read-out: γAPP IC50): > 100 nM |
| O=S(=O)(c1ccc(C(F)(F)F)nc1)N1C2Cc3[nH]ncc3C1c1c(C3CC3)cccc12 (racemic) [compound 274] | < 100 nM | – |
| O=S(=O)(c1ccc(C(F)(F)F)cc1)N1C2Cc3[nH]ncc3C1c1cccnc12 (single isomer, unassigned) [compound 99] | > 1000 nM | – |
| O=S(=O)(c1ccc(C(F)(F)F)cc1)N1C2Cc3[nH]ncc3C1c1ncccc12 (single isomer, unassigned) [compound 101] | < 100 nM | – |
| O=S(=O)(c1ccc(C(F)(F)F)cc1)N1C2Cc3[nH]ncc3C1c1ncccc12 (single isomer, unassigned) [compound 102] | 500 to 999 nM | – |
| O=S(=O)(c1ccc(C(F)(F)F)nc1)N1C2Cc3n[nH]cc3C1c1cc(F)c(F)cc12 (single isomer, unassigned) [compound 110] | > 1000 nM | – |
| O=S(=O)(c1ccc(C(F)(F)F)nc1)N1C2Cc3n[nH]cc3C1c1cc(F)c(F)cc12 (single isomer, unassigned) [compound 111] | < 100 nM | – |

| Structure (SMILES) | IC50 [1] | also measured |
| --- | --- | --- |
| O=S(=O)(c1ccc(C(F)(F)F)cc1)N1C2Cc3n[nH]cc3C1c1c(F)cccc12 (single isomer, unassigned) [compound 114] | – | IC50 (γAPP IC50 (nM), class symbols): 500 to 999 nM |
| O=S(=O)(c1ccc(C(F)(F)F)cc1)N1C2Cc3n[nH]cc3C1c1c(F)cccc12 (single isomer, unassigned) [compound 115] | – | IC50 (γAPP IC50 (nM), class symbols): < 100 nM |
| Cn1cc(C2CC3Cc4[nH]ncc4C(C2)N3S(=O)(=O)c2ccc(Cl)cc2)nn1 (single isomer, unassigned) [compound 137] | > 1000 nM | – |
| Cn1cc(C2CC3Cc4[nH]ncc4C(C2)N3S(=O)(=O)c2ccc(Cl)cc2)nn1 (single isomer, unassigned) [compound 138] | 500 to 999 nM | – |
| N#Cc1ccc2c(c1)C1Cc3n[nH]cc3C2N1S(=O)(=O)c1ccc(C(F)(F)F)nc1 (single isomer, unassigned) [compound 172] | > 1000 nM | – |
| N#Cc1ccc2c(c1)C1Cc3n[nH]cc3C2N1S(=O)(=O)c1ccc(C(F)(F)F)nc1 (single isomer, unassigned) [compound 174] | < 100 nM | – |
| O=S(=O)(c1ccc(C(F)(F)F)nc1)N1C2Cc3[nH]ncc3C1c1cc(F)ccc12 (single isomer, unassigned) [compound 179] | 500 to 999 nM | – |
| O=S(=O)(c1ccc(C(F)(F)F)nc1)N1C2Cc3[nH]ncc3C1c1cc(F)ccc12 (single isomer, unassigned) [compound 180] | < 100 nM | – |
| O=S(=O)(c1ccc(C(F)(F)F)nc1)N1C2Cc3n[nH]cc3C1c1cccc(F)c12 (single isomer, unassigned) [compound 184] | 500 to 999 nM | – |
| O=S(=O)(c1ccc(C(F)(F)F)nc1)N1C2Cc3n[nH]cc3C1c1cccc(F)c12 (single isomer, unassigned) [compound 185] | < 100 nM | – |
| O=C1c2[nH]ncc2C2c3cccc(F)c3C1N2S(=O)(=O)c1ccc(C(F)(F)F)nc1 (single isomer, unassigned) [compound 192] | < 100 nM | – |
| O=C1c2[nH]ncc2C2c3cccc(F)c3C1N2S(=O)(=O)c1ccc(C(F)(F)F)nc1 (single isomer, unassigned) [compound 193] | 500 to 999 nM | – |
| O=S(=O)(c1ccc(C(F)(F)F)nc1)N1C2Cc3[nH]ncc3C1c1ccc(Cl)cc12 (single isomer, unassigned) [compound 223] | 500 to 999 nM | – |
| O=S(=O)(c1ccc(C(F)(F)F)nc1)N1C2Cc3[nH]ncc3C1c1ccc(Cl)cc12 (single isomer, unassigned) [compound 224] | < 100 nM | – |
| O=S(=O)(c1ccc(Cl)cc1)N1C2Cc3[nH]ncc3C1c1c(F)cccc12 (single isomer, unassigned) [compound 230] | > 1000 nM | – |
| O=S(=O)(c1ccc(Cl)cc1)N1C2Cc3[nH]ncc3C1c1c(F)cccc12 (single isomer, unassigned) [compound 231] | < 100 nM | – |
| O=S(=O)(c1ccc(C(F)(F)F)nc1)N1C2Cc3[nH]ncc3C1c1c(Cl)cccc12 (single isomer, unassigned) [compound 232] | 500 to 999 nM | – |
| O=S(=O)(c1ccc(C(F)(F)F)nc1)N1C2Cc3[nH]ncc3C1c1c(Cl)cccc12 (single isomer, unassigned) [compound 233] | < 100 nM | – |
| O=S(=O)(c1ccc(C(F)(F)F)nc1)N1C2Cc3[nH]ncc3C1c1cc(-c3ccc(F)cc3)ccc12 (single isomer, unassigned) [compound 244] | > 1000 nM | – |
| O=S(=O)(c1ccc(C(F)(F)F)nc1)N1C2Cc3[nH]ncc3C1c1cc(-c3ccc(F)cc3)ccc12 (single isomer, unassigned) [compound 245] | 100 to 499 nM | – |
| O=S(=O)(c1ccc(C(F)(F)F)nc1)N1C2Cc3[nH]ncc3C1c1cc(C3CC3)ccc12 (single isomer, unassigned) [compound 246] | > 1000 nM | – |
| O=S(=O)(c1ccc(C(F)(F)F)nc1)N1C2Cc3[nH]ncc3C1c1cc(C3CC3)ccc12 (single isomer, unassigned) [compound 247] | < 100 nM | – |
| O=S(=O)(c1ccc(C(F)(F)F)nc1)N1C2Cc3n[nH]cc3C1c1nc(Br)ccc12 (single isomer, unassigned) [compound 248] | < 100 nM | – |
| O=S(=O)(c1ccc(C(F)(F)F)nc1)N1C2Cc3n[nH]cc3C1c1nc(Br)ccc12 (single isomer, unassigned) [compound 249] | > 1000 nM | – |
| O=S(=O)(c1ccc(C(F)(F)F)nc1)N1C2Cc3[nH]ncc3C1c1ncc(F)cc12 (single isomer, unassigned) [compound 259] | – | IC50 (γAPP IC50 (nM), class symbols): > 1000 nM |
| O=S(=O)(c1ccc(C(F)(F)F)nc1)N1C2Cc3[nH]ncc3C1c1ncc(F)cc12 (single isomer, unassigned) [compound 260] | – | IC50 (γAPP IC50 (nM), class symbols): < 100 nM |
| O=S(=O)(c1ccc(C(F)(F)F)cc1)N1C2c3cn[nH]c3C(F)C1c1cccc(F)c12 (single isomer, unassigned) [compound 262] | > 1000 nM | – |
